In patent US4298525A, “Bis-indole-alkaloid” (Richter Gedeon Vegyeszeti Gyar RT, priority 1979, dated 1981):
Where two headings read alike, the source gives them in different places.

Experiments:
P 388 tumor cells = experiment: inhibition of tumor growth in tissue culture, P 388; format: cell-based, mice; details: for inhibition at 0.1 µg/mL: Mus musculus, P388
Experimental: The inhibition of tumor growth was initially studied in a tissue culture. A 20 mg./ml. solution of RGH-4451 in a Fischer medium was prepared and subsequently diluted to the desired concentration. The number of cells in the P 388 cultures was determined 24 and 48 hours after treatment.
The inhibition was 43% after 24 hours and 89% after 48 hours. In in vitro tests the compound was 100-times less toxic than vincristine and 4-times less toxic than N-desmethyl-N-formyl-leurosine.

[1] = paralytic symptoms at sublethal doses; format: in vivo; details: even at sublethal doses; by contrast with vincristine
Guerin sc. carcinoma = experiment: effect on Guerin sc. carcinoma; format: in vivo, Wistar rats; details: for Mortality until the 22nd day/number of animals / Inhibition / Weight of tumor, treated: six subsequent days; for Inhibition / Weight of tumor, treated: 22nd day
Experimental: Tumors were transplanted into Wistar rats subcutaneously. Administration of RGH-4451 was started on the day following the transplantation and the compound was administered six subsequent days intraperitoneally. The inhibition of tumor growth was evaluated on the 22nd day.

[2] = tested on: Ehrlich ascites carcinoma; experiment: effect on Ehrlich ascites carcinoma; format: in vivo, outbred Swiss mice; details: for Mean duration of life expressed in % of treated*/control: second part of table, maximum 400%
Experimental: (§1) Transplantation was carried out into outbred Swiss mice at a level of 5×10^6 ascites tumor cells. Administration of RGH-4451 was started 24 hours after transplantation.

P 388 leukemia = experiment: effect on P 388 leukemia tumors of mice; format: in vivo, BDF1 hybrid mice
Description: 10^6 P 388 leukemia cells were transplanted into BDF1 hybrid mice intraperitoneally. Administration of RGH-4451 was started the day following the transplantation.

NK/Ly ascites lymphoma = experiment: effect on NK/Ly ascites lymphoma; format: in vivo, outbred Swiss mice
Experimental: Tests were carried out analogously with the Ehrlich ascites test.
as §1

S 180 sc. carcinoma = experiment: effect on S 180 sc. carcinoma; format: in vivo, Swiss mice; details: even at doses as high as 16 mg/kg i.p. daily
Experimental: S 180 sc. tumor tissues were transplanted into Swiss mice subcutaneously. Treatment was started 24 hours after transplantation. RGH-4451 was administered once a day in a dose of 2, 4, 8 and 16 mg./kg., respectively intraperitoneally. The tumor growth inhibition was evaluated on the 11th day on the basis of the weight of tumors. The change of the weight of spleen was also monitored.

[3] = therapeutic effect, MTD/min eff. D; details: in vivo
[4] = acute toxicity on mice (LD50, i.p.); format: in vivo
Experimental: The acute toxicity of RGH-4451 was tested on mice.
The lethal dose killed the animals on the 2nd to 5th day.

[5] = overall tumor-growth inhibition and prolongation of life (summary of the tests); format: in vivo
Experimental: From the tests described hereinabove it can be concluded that 1.0 to 10.0 mg./kg. daily doses or 20 mg./kg. single doses of RGH-4451 have a significant tumor-growth inhibition effect and prolong the duration of life.

[6] = animals; cited from earlier work
[7] = human therapy; Rohn, R. et al.; cited from earlier work
[8] = in vivo
[9] = administration of vincristine; cited from earlier work
[10] = 2.0 mg/kg i.p., 9 treatments, every day
[11] = 4.0 mg/kg i.p., 9 treatments, every day
[12] = 6.0 mg/kg i.p., 9 treatments, every day
[13] = 3.2 mg/kg i.p., 9 treatments, every day
[14] = 3.2 mg/kg i.p., 9 treatments, every day, control 12.3 days
[15] = 5.0 mg/kg i.p., 9 treatments, every day
[16] = 5.0 mg/kg i.p., 9 treatments, every day, control 13.2 days
[17] = 6.4 mg/kg i.p., 9 treatments, every day
[18] = 6.4 mg/kg i.p., 9 treatments, every day, control 12.3 days
[19] = 10 mg/kg i.p., 5 treatments, every second day
[20] = 10 mg/kg i.p., 5 treatments, every second day, control 10.5 days
[21] = 20 mg/kg i.p., 1 treatment, control 10.5 days
[22] = 20 mg/kg i.p., 6 treatments, every day
[23] = 20 mg/kg i.p., 6 treatments, every day, control 13.2 days

CCOCN1c2cc(OC)c(C3(C(=O)OC)CC4CN(CCc5c3[nH]c3ccccc53)CC(O)(CC)C4)cc2C23CCN4CC=CC(CC)(C(OC(C)=O)C(O)(C(=O)OC)C12)C43 (stereo not drawn) [RGH-4451]
growth of P 388 tumor cells (in words) (P 388 tumor cells; 10^-1 μg./ml.): considerably inhibited
inhibition at 0.1 µg/mL (P 388 tumor cells; 10^-1 μg./ml., after 24 hours): 43%
inhibition at 0.1 µg/mL (P 388 tumor cells; 10^-1 μg./ml., after 48 hours): 89%
in vitro toxicity, times less toxic than N-desmethyl-N-formyl-leurosine (P 388 tumor cells; in vitro, less toxic than N-desmethyl-N-formyl-leurosine): 4 times
in vitro toxicity, times less toxic than vincristine (P 388 tumor cells; in vitro, less toxic than vincristine): 100 times
paralytic symptoms [1]: entirely lacking
Mortality until the 22nd day/number of animals (Guerin sc. carcinoma; 2.0 mg/kg i.p.): 0/6
Inhibition (Guerin sc. carcinoma; 2.0 mg/kg i.p.): 43
Weight of tumor, treated (Guerin sc. carcinoma; 2.0 mg/kg i.p., control 18.9): 10.7
Mortality until the 22nd day/number of animals (Guerin sc. carcinoma; 6.0 mg/kg i.p.): 0/6
Inhibition (Guerin sc. carcinoma; 6.0 mg/kg i.p.): 81
Weight of tumor, treated (Guerin sc. carcinoma; 6.0 mg/kg i.p., control 44.9): 8.69
Mortality until the 22nd day/number of animals (Guerin sc. carcinoma; 10.0 mg/kg i.p.): 0/6
Inhibition (Guerin sc. carcinoma; 10.0 mg/kg i.p.): 68
Weight of tumor, treated (Guerin sc. carcinoma; 10.0 mg/kg i.p., control 44.9): 14.64
Mortality until the 22nd day/number of animals (Guerin sc. carcinoma; 14.0 mg/kg i.p.): 5/6
growth of Guerin carcinoma (in words) (Guerin sc. carcinoma; 2 to 10 mg/kg i.p. doses): strongly inhibited
Mean duration of life expressed in % of treated/control ([2]; 1.0 mg/kg i.p., 9 treatments, every day): 15.4%
Mean duration of life, treated ([2]; 1.0 mg/kg i.p., 9 treatments, every day, control 15.4 days): 54.2 days
On the 65th day alive [2, 10]: 9/10
On the 65th day tumor-free [2, 10]: 6/10
Mean duration of life, treated ([2]; 2.0 mg/kg i.p., 9 treatments, every day, control 16.4 days, first part of table): 43.0 days
Mean duration of life, treated ([2]; 2.0 mg/kg i.p., 9 treatments, every day, control 16.4 days, second part of table (65th day)): 64.1 days
Mean duration of life expressed in % of treated/control ([2]; 2.0 mg/kg i.p., 9 treatments, every day, first part of table): 261%
Mean duration of life expressed in % of treated*/control [2, 10]: 392%
On the 65th day alive [2, 11]: 8/10
On the 65th day tumor-free [2, 11]: 7/10
Mean duration of life, treated ([2]; 4.0 mg/kg i.p., 9 treatments, every day, control 16.4 days, first part of table): 36.4 days
Mean duration of life, treated ([2]; 4.0 mg/kg i.p., 9 treatments, every day, control 16.4 days, second part of table (65th day)): 62.9 days
Mean duration of life expressed in % of treated/control ([2]; 4.0 mg/kg i.p., 9 treatments, every day, first part of table): 222%
Mean duration of life expressed in % of treated*/control [2, 11]: 384%
On the 65th day alive [2, 12]: 8/10
On the 65th day tumor-free [2, 12]: 4/10
Mean duration of life, treated ([2]; 6.0 mg/kg i.p., 9 treatments, every day, control 15.9 days, first part of table): 48.2 days
Mean duration of life, treated ([2]; 6.0 mg/kg i.p., 9 treatments, every day, control 16.7 days, second part of table (65th day)): 65.8 days
Mean duration of life expressed in % of treated/control ([2]; 6.0 mg/kg i.p., 9 treatments, every day, first part of table): 303%
Mean duration of life expressed in % of treated*/control [2, 12]: 394%
On the 65th day alive ([2]; 20 mg/kg i.p., 1 treatment): 8/10
On the 65th day tumor-free ([2]; 20 mg/kg i.p., 1 treatment): 3/10
Mean duration of life, treated ([2]; 20 mg/kg i.p., 1 treatment, control 16.7 days, second part of table (65th day)): 65.5 days
Mean duration of life expressed in % of treated*/control ([2]; 20 mg/kg i.p., 1 treatment): 392%
antitumor effect (in words) ([2]; 2 to 6 mg/kg once a day): remarkable antitumor effect
proportion of treated animals tumor-free on the 65th day (in words) ([2]; 2 to 6 mg/kg once a day): a great part of the treated animals is tumor-free on the 65th day
Mean duration of life expressed in % of treated/control (P 388 leukemia; [13]): 181%
Mean duration of life, treated (P 388 leukemia; [14]): 22.3 days
Mean duration of life expressed in % of treated/control (P 388 leukemia; [15]): 163%
Mean duration of life, treated (P 388 leukemia; [16]): 21.5 days
Mean duration of life expressed in % of treated/control (P 388 leukemia; [17]): 166%
Mean duration of life, treated (P 388 leukemia; [18]): 20.5 days
Mean duration of life expressed in % of treated/control (P 388 leukemia; [19]): 208%
Mean duration of life, treated (P 388 leukemia; [20]): 21.8 days
Mean duration of life expressed in % of treated/control (P 388 leukemia; 20 mg/kg i.p., 1 treatment): 185%
Mean duration of life, treated (P 388 leukemia; [21]): 19.4 days
Mean duration of life expressed in % of treated/control (P 388 leukemia; [22]): 64%
Mean duration of life, treated (P 388 leukemia; [23]): 8.5 days
Mean duration of life expressed in % of treated/control (NK/Ly ascites lymphoma; [13]): 181%
Mean duration of life, treated (NK/Ly ascites lymphoma; [14]): 22.3 days
Mean duration of life expressed in % of treated/control (NK/Ly ascites lymphoma; [15]): 163%
Mean duration of life, treated (NK/Ly ascites lymphoma; [16]): 21.5 days
Mean duration of life expressed in % of treated/control (NK/Ly ascites lymphoma; [17]): 166%
Mean duration of life, treated (NK/Ly ascites lymphoma; [18]): 20.5 days
Mean duration of life expressed in % of treated/control (NK/Ly ascites lymphoma; [19]): 208%
Mean duration of life, treated (NK/Ly ascites lymphoma; [20]): 21.8 days
tolerability of the large dose given every day (in words) (NK/Ly ascites lymphoma; 20 mg/kg every day, cannot be administered due to its toxicity): cannot be administered every
Mean duration of life expressed in % of treated/control (NK/Ly ascites lymphoma; 20 mg/kg i.p., 1 treatment): 185%
Mean duration of life, treated (NK/Ly ascites lymphoma; [21]): 19.4 days
Mean duration of life expressed in % of treated/control (NK/Ly ascites lymphoma; [22]): 64%
Mean duration of life, treated (NK/Ly ascites lymphoma; [23]): 8.5 days
duration of life of the tumorous animals (in words) (NK/Ly ascites lymphoma; 3.2 to 6.4 mg/kg doses every day): considerably been prolonged
effect on duration of life (in words) (NK/Ly ascites lymphoma; single 20 mg/kg dose): also effective
decrease in the weight of spleen (S 180 sc. carcinoma): no substantial decrease in the weight of spleen
MTD/min eff. D [3]: 10
LD50 of RGH-4451 as multiple of that of N-desmethyl-N-formyl-leurosine ([4]; i.p.): 2.5 times
LD50 of RGH-4451 as multiple of that of vinblastine ([4]; i.p.): about 10 times
LD50 of RGH-4451 as multiple of that of vincristine ([4]; i.p.): 17 fold
paralytic symptoms accompanying death ([4]; lethal dose): not accompanied by paralytic symptoms
LD50 ([4]; mouse, in vivo, ip): 70 mg/kg
crippling of surviving animals ([4]; survivors, in contrast with vincristine): not crippled even temporarily
single dose with a significant tumor-growth inhibition effect and prolongation of life [5]: 20 mg/kg

CC[C@]12CN3CCc4c([nH]c5ccccc45)[C@@](C(=O)OC)(c4cc5c(cc4OC)N(C)[C@H]4[C@@](O)(C(=O)OC)[C@H](OC(C)=O)[C@]6(CC)C=CCN7CC[C@]54[C@@H]76)C[C@H](C3)[C@H]1O2 [leurosine]
antitumor activity [6]: antitumor activity of leurosine has been proved on animals
toxicity on the hematopoietic organs [7]: unreasonably high toxicity on the hematopoietic organs

CC[C@]1(O)C[C@H]2CN(CCc3c([nH]c4ccccc34)[C@@](C(=O)OC)(c3cc4c(cc3OC)N(C=O)[C@H]3[C@@](O)(C(=O)OC)[C@H](OC(C)=O)[C@]5(CC)C=CCN6CC[C@]43[C@@H]65)C2)C1 [vincristine, N-desmethyl-N-formylvinblastine]
MTD/min eff. D [8]: 6
effect of a large single dose on the duration of life ([2]; large single dose): did not increase the duration of life
toxic side effects [9]: paralytic symptoms due to neurotoxicity
